According to PMC6009932, “Small molecule purine and pseudopurine derivatives: synthesis, cytostatic evaluations and investigation of growth inhibitory effect in non-small cell lung cancer A549” (Journal of Enzyme Inhibition and Medicinal Chemistry, 2017):

Experiments:
[1] = test system: HeLa (cervical carcinoma); test: Proliferation assay (MTT, 72 h) on HeLa; format: cell-based; details: Homo sapiens
Method: (§1) Human carcinoma cell lines A549 (lung carcinoma), HeLa (cervical carcinoma), SW620 (colorectal adenocarcinoma, metastatic), and CFPAC-1 (pancreatic cancer, derived from metastatic: liver), normal human lung (WI38) and foreskin (HFF-1) fibroblasts were obtained from the American Type Culture Collection (ATCC). Cells were cultured in humidified atmosphere at 37 °C with 5% CO2. As growth medium, Dulbecco’s modified Eagle medium (DMEM) was used with the addition of foetal bovine serum (10%), L-glutamine (2 mM) and antibiotics: streptomycin (100 µg/ml) and penicillin (100 U/ml).
(§2) Cells were seeded onto 96-well microtiter plates at a seeding density of 3000 cells/well for carcinoma cell lines, and 5000 cells/well for normal human fibroblasts. The next day, cells were treated with test agents in five different concentrations (0.01–100 µM) and further incubated for 72 h. […] Following 72 h incubation, the MTT assay was performed and measured absorbances were transformed into percentage of cell growth as described previously. Results were obtained from three independent experiments. IC50 values were calculated using linear regression analysis and results were statistically analysed by ANOVA, Tukey post-hoc test (p < .05).

[2] = test system: SW620 (colorectal adenocarcinoma, metastatic); test: Proliferation assay (MTT, 72 h) on SW620; format: cell-based; details: Homo sapiens, SW-620
Method: as §1, §2

p-p38 MAPK = test: Western blot analysis of p-p38 MAPK in A549 cells; format: cell-based, human; details: A549, 2 × IC50, 48 h
Method: (§3) Cells were seeded in 6-well plates in the concentration depending on tested cell line varying from 1 × 10^5 to 2 × 10^5 cells/well. […] Following treatment, cells were lysed with RIPA buffer supplemented with protease and phosphatase inhibitors (Roche). Total proteins (50 µg) were resolved on 10 or 12% polyacrilamide gels, depending on protein size, and transferred onto PVDF membranes that were blocked for 1 h with either 4% BSA or 5% non-fat milk prepared in tris-buffered saline (TBST). Membranes were probed with primary antibodies against GPLD1 (Abcam), PDGFRβ, p-IGF-1Rβ, p-p38 MAPK, and p-NF-κB-p65 from cell signalling technology at 4 °C overnight. The next day, membranes were washed in TBST and probed with horseradish peroxidase-conjugated secondary antibodies goat anti-mouse (Santa Cruz Biotechnology) or goat anti-rabbit (Santa Cruz Biotechnology). Protein bands were visualised using chemiluminescence substrate and ImageQuant LAS 500 (GE Healthcare, Chicago, IL). Following visualisation, protein band density was analysed by Quantity One 1-D Analysis Software (Bio-Rad, Hercules, CA).

GPLD1 = test: Western blot analysis of GPLD1 in A549 cells; format: cell-based, human; details: A549, 2 × IC50, 48 h
Method: as §3

p-IGF-1Rβ = test: Western blot analysis of p-IGF-1Rβ in A549 cells; format: cell-based, human; details: A549, 2 × IC50, 48 h
Method: as §3

A549 cells = test: Annexin V-FITC assay for apoptosis detection; format: cell-based, human
Method: Staining of the cells was performed by Annexin-V-FITC Staining kit (Santa Cruz Biotechnology, Dallas, TX) according to the manufacturer’s instructions. Cells were visualised by fluorescent microscope (Olympus) at magnification of 40×.
Further biological evaluations of compound 12b which was identified as a candidate were performed in order to investigate whether its antiproliferative effect in non-small cell lung cancer (A549) could be associated with induction of apoptosis.

[3] = test system: CFPAC-1 (ductal pancreatic adenocarcinoma); test: Proliferation assay (MTT, 72 h) on CFPAC-1; format: cell-based; details: Homo sapiens
Method: as §1, §2

PDGFRβ = test: Western blot analysis of PDGFR in A549 cells; format: cell-based, human; details: A549, 2 × IC50, 48 h
Method: as §3

A549 (lung carcinoma) = test: Proliferation assay (MTT, 72 h) on A549; format: cell-based; details: Homo sapiens, A549 lung adenocarcinoma
Method: as §1, §2

p-NF-κB-p65 = test: Western blot analysis of p-NF-κB-p65 in A549 cells; format: cell-based, human; details: A549, 2 × IC50, 48 h
Method: as §3

[4] = test system: WI38 normal human lung fibroblasts; test: Proliferation assay (MTT, 72 h) on normal lung fibroblasts WI38; format: cell-based; details: WI-38, read-out: IC50 WI38/HFF-1 (WI38)
Method: as §1, §2

[5] = A549, 48 h, 2 × IC50, versus control

Clc1ccc(-n2cc(Cn3cnc4ccccc43)nn2)cc1 [Compound 12b, 1-{[1-(4-chlorophenyl)-1H-1,2,3-triazol-4-yl]methyl}-1H-benzo[d]imidazole]
IC50 [1]: 42.2 µM | IC50 [2]: 91.2 µM | expression level of p-p38 MAP kinase (p-p38 MAPK): marked decline | expression level of GPLD1 protein (GPLD1): dramatically reduced | expression of p-IGF-1Rβ (p-IGF-1Rβ): downregulated | Secondary necrotic cells (A549 cells; A549, 48 h, 2 × IC50, PI+): 2.39% | Late apoptotic/Primary necrotic cells (A549 cells; A549, 48 h, 2 × IC50, PI+/Ann V+): 19.76% | Early apoptotic cells (A549 cells; A549, 48 h, 2 × IC50, PI−/Ann V+): 31.14% | Viable cells (A549 cells; A549, 48 h, 2 × IC50, PI−/Ann V−): 46.71% | increase in early apoptotic cell population (A549 cells; [5]): 30.62% | increase in late apoptotic/necrotic cell population (A549 cells; [5]): 19.76% | induction of apoptosis (A549 cells; A549 cells): induced apoptosis | IC50 [3]: 52.6 µM | expression of PDGFR (PDGFRβ): downregulated | IC50 (A549 (lung carcinoma)): 0.79 µM | p-NF-κB-p65 subunit expression level (p-NF-κB-p65): significant reduction | IC50 [4]: 38.1 µM
